Data: patent US8669395B2, “Optically active 4-amino-3-(4-chlorophenyl)butanoic acid” (Sumitomo Chemical Company, Limited, priority 2009, dated 2014)

Tests used:
[1] = solubility in 100 g of water, Test Example 2; assay type: physicochemical
Protocol: About each of crystal A yielded according to the same process in Example 1, and crystal B yielded according to the same process in Comparative Example 1, the solubility thereof in 100 g of water was measured.

[2] = differential scanning calorimetry (DSC), Test Example 1; assay type: physicochemical; details: for Endothermic peak / Exothermic peak: DSC, 25 to 500° C., 10° C./minute, air-tightly closed SUS container
Protocol: About the DSC measurement, for example, a differential scanning calorimeter of an EXTER 6000 type, manufactured by SII Nano Technology Inc., is used to make it possible to make the measurement under the following conditions: […]
measuring temperature range: 25 to 500° C., temperature-raising rate: 10° C./minute, container: air-tightly closed SUS, sample amount: about 0.4 to 0.7 mg, reference: α-alumina having a weight of about 0.6 mg, and atmospheric gas flow rate: dried nitrogen, about 70 mL/minute.
About each of crystal A yielded according to the same process in Example 1, and crystal B yielded according to the same process in Comparative Example 1, a device manufactured by SII Nano Technology Inc., EXTER 6000, was used to measure the DSC thereof under differential scanning calorie analysis conditions described below.
(Differential Scanning Calorie Analysis Conditions)

NC[C@H](CC(=O)O)c1ccc(Cl)cc1 [Crystal A, (R)-4-amino-3-(4-chlorophenyl)butanoic acid]
solubility in 100 g of water ([1]; 25° C.): 0.88 g
solubility in 100 g of water ([1]; 40° C.): 1.16 g
solubility in 100 g of water ([1]; 75° C.): 2.20 g
Endothermic peak [2]: 203 °C
Exothermic peak [2]: 386 °C
thermal stability ([2]; concluded from the DSC endothermic and exothermic peaks, compared with crystal B): far better in thermal stability than crystal B

NC[C@H](CC(=O)O)c1ccc(Cl)cc1 [Crystal B, (R)-4-amino-3-(4-chlorophenyl)butanoic acid, reference compound]
solubility in 100 g of water ([1]; 25° C.): 1.98 g
solubility in 100 g of water ([1]; 55° C.): 2.59 g
solubility in 100 g of water ([1]; 75° C.): 2.86 g
Endothermic peak [2]: 187 °C
Exothermic peak [2]: 349 °C
